# Reference: publication PMC3237002, “Molecular Conversion of Muscarinic Acetylcholine Receptor M5 to Muscarinic Toxin 7 (MT7)-Binding Protein” (Toxins, 2011)
# Residue numbers refer to the chain shown, from its start.
# How the values were obtained:
# [1] = molecular target: T1, M5-ELY receptor construct (Homo sapiens, UniProt P08912, K175E/P179L/Q184Y); test: [3H]NMS dissociation rate, M5-ELY; type: binding
# T1 construct: expressed in transfected cells; host or cells: Sf9 cells, recombinant baculovirus
# T1 sequence (P08912 1-532 K175E/P179L/Q184Y): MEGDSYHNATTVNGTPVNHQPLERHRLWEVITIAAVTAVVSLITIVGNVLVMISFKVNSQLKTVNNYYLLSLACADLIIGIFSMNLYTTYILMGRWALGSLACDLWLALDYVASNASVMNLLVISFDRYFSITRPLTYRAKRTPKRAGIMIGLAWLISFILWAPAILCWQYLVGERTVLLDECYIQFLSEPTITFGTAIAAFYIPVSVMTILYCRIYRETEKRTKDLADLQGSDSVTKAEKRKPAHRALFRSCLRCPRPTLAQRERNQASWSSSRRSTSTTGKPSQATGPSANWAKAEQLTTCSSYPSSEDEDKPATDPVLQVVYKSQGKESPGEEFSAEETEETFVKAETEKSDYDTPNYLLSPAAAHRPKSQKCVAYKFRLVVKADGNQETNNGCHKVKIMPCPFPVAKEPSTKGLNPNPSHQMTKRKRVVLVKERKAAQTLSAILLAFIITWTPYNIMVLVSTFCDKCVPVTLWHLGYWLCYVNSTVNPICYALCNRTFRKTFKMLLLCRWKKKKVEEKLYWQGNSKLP
# Description: (§1) The Infected cells from monolayer culture were harvested in phosphate-buffered saline solution, centrifuged 700× g and stored as pellets at −70 °C until use. For binding experiments the cells were resuspended in binding buffer (100 mM NaCl, 20 mM HEPES, 10 mM MgCl2, 1 mM EDTA, pH adjusted to 7.4) and homogenized with an Ultra-Turrax homogenizer. […] Atropine (10 μM) was used to determine nonspecific binding. […] Following this, dissociation was started by addition of 10 μM atropine with or without MT7. Aliquots were removed at regular intervals from 0 to 100 min. In testing the reversibility of MT7 binding, cell homogenates were first incubated with toxin in test tubes for 45 min, thereafter centrifuged 12,000 × g for 30 min and then resuspended in fresh buffer. […] All reactions were terminated by rapid filtration through prewashed GF/B filters followed by five washes with cold buffer containing 180 mM NaCl, 25 mM MgCl2, and 20 mM HEPES, pH 7.4, in a microplate harvester. Radioactivity on filters was determined in a TopCount microplate scintillation counter (PerkinElmer, Waltham, MA).
# [2] = molecular target: T2, M5-ELYE receptor construct (Homo sapiens, UniProt P08912, K175E/P179L/Q184Y/V474E); test: [3H]NMS dissociation rate, M5-ELYE; type: binding
# T2 construct: expressed in transfected cells; host or cells: Sf9 cells, recombinant baculovirus
# T2 sequence (P08912 1-532 K175E/P179L/Q184Y/V474E): T1 sequence (P08912 1-532 K175E/P179L/Q184Y) with V474E
# Description: as §1
smiles,measurement,setting,value
"C[N+]1(C)[C@@H]2CC(OC(=O)[C@H](CO)c3ccccc3)C[C@H]1[C@@H]1O[C@@H]12 (some centres unmarked) [[^3H]NMS, [^3H]-N-methylscopolamine]","[3H]NMS dissociation rate, control",[1],0.113 min⁻¹
same,"[3H]NMS dissociation rate, control",[2],0.147 min⁻¹
